Where a name gives a salt, the structure may show the parent alone.
These compounds were tested against T1, MASP-2 (CCP1-CCP2-SP) (Homo sapiens, UniProt O00187) (assay: Enzymatic Assay for MASP-2). Details: fluorogenic substrate based on C2 cleavage site, room temperature, 20 mM HEPES pH 7.4.
T1 construct: 15 μL of Enzyme MASP-2 (CCP1-CCP2-SP) in Assay Buffer
Type: biochemical
Experimental: Enzymatic Assay for MASP-2
The MASP-2 assay utilizes a fluorogenic substrate, based on the cleavage site for its natural substrate C2. The assay is run at room temperature in an assay buffer containing 20 mM HEPES, pH 7.4, 140 mM NaCl and 0.1% Tween 20. Assay parameters are adjusted such that the assay is linear with respect to time, enzyme, and substrate concentrations. Under these optimized assays conditions, IC50 values are equivalent to Ki values, except in a few cases of “tight binding” inhibitors. Cases of “tight binding” or possible “slow binding” inhibitors are handled by the methods described in Copeland R. A. (2013) Evaluation of Enzyme Inhibitors in Drug Discovery. 2nd Ed., John Wiley and Sons, Inc., Chapters 5-7.
The MASP-2 assay protocol is carried out as follows. Test compounds are serially diluted in DMSO and then 100 nL of each dilution is transferred to the assay plate(s). 10 μL of Assay Buffer is added, followed by 15 μL of Enzyme MASP-2 (CCP1-CCP2-SP) in Assay Buffer. 15 μL of Substrate in Assay Buffer is then added and mixed to start the reactions. After 20 min at room temperature, 15 μL of a stop solution (0.1 M acetic acid) is added, mixed and the plates are read on a SpectraMax i3x Microplate Reader and exported as Excel files. Each assay plate included a “no inhibitor” (DMSO Only) control, a “no enzyme” control and a reference inhibitor control. % Activity values=100*(average test comp. fluorescence−average “no enzyme” fluorescence)/(average “DMSO only” fluorescence−average “no enzyme” fluorescence). IC50 and Ki values are very reproducible, falling well within ±2-fold.

T1 sequence (O00187 445-686 limits assumed): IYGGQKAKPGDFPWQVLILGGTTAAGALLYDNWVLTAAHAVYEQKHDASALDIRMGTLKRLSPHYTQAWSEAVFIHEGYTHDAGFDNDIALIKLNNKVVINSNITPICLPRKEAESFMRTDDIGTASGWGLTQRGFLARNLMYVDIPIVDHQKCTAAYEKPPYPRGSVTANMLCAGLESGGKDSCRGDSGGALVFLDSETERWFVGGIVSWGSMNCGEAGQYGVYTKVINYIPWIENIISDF
T1 sequence (O00187 298-444 partner limits assumed): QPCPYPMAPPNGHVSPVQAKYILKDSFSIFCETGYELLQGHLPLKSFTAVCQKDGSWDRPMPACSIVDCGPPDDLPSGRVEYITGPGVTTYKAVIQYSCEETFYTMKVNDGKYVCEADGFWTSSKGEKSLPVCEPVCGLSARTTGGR

Row | Ki [nM] | SMILES
1 | < 500 | O=C(Cn1c(-c2ccccc2)cnc(NCCc2ccccc2)c1=O)NCc1cc2cnccc2[nH]1 [Compound 20, N-((1H-Pyrrolo[3,2-c]pyridin-2-yl)methyl)-2-(2-oxo-3-(phenethylamino)-6-phenylpyrazin-1(2H)-yl)acetamide trifluoroacetate]
2 | < 500 | O=C(Cn1c(-c2ccc(C(F)(F)F)cc2)cnc(NCCc2ccccc2)c1=O)NCc1cc2cnccc2[nH]1 [Compound 21, N-((1H-Pyrrolo[3,2-c]Pyridin-2-yl)Methyl)-2-(2-Oxo-3-(Phenethylamino)-6-(4-(Trifluoromethyl)Phenyl)Pyrazin-1(2H)-yl)Acetamide, Trifluoroacetate]
3 | < 500 | Cc1nc(N)ccc1CNC(=O)Cn1c(-c2ccc[nH]2)cnc(NCCc2ccccc2)c1=O [Compound 22, N-((6-Amino-2-methylpyridin-3-yl)methyl)-2-(2-oxo-3-(phenethylamino)-6-(1H-pyrrol-2-yl)pyrazin-1(2H)-yl)acetamide]
4 | < 500 | Cc1nc(N)ccc1CNC(=O)Cn1c(-c2cncnc2)cnc(NCCc2ccccc2)c1=O [Compound 23, N-((6-Amino-2-methylpyridin-3-yl)methyl)-2-(2-oxo-3-(phenethylamino)-6-(pyrimidin-5-yl)pyrazin-1(2H)-yl)acetamide]
5 | < 500 | Cc1nc(N)ccc1CNC(=O)Cn1c(-c2cccc3cnccc23)cnc(NCCc2ccccc2)c1=O [Compound 24, N-((6-Amino-2-methylpyridin-3-yl)methyl)-2-(6-(isoquinolin-5-yl)-2-oxo-3-(phenethylamino)pyrazin-1(2H)-yl)acetamide]
6 | < 500 | Cc1nc(N)ccc1CNC(=O)Cn1c(-c2cnn(C)c2)cnc(NCCc2ccccc2)c1=O [Compound 25, N-((6-Amino-2-methylpyridin-3-yl)methyl)-2-(6-(1-methyl-1H-pyrazol-4-yl)-2-oxo-3-(phenethylamino)pyrazin-1(2H)-yl)acetamide]
7 | 500 to 2500 | Cc1nc(N)ccc1CNC(=O)Cn1c(C#Cc2ccccc2)cnc(NCCc2ccccc2)c1=O [Compound 26, N-((6-Amino-2-Methylpyridin-3-yl)Methyl)-2-(2-Oxo-3-(Phenethylamino)-6-(Phenylethynyl)Pyrazin-1(2H)-yl)Acetamide]
8 | < 500 | Cc1nc(N)ccc1CNC(=O)Cn1c(-c2ccc(C#N)cc2)cnc(NCCc2ccccc2)c1=O [Compound 27, N-((6-Amino-2-Methylpyridin-3-yl)Methyl)-2-(6-(4-Cyanophenyl)-2-Oxo-3-(Phenethyl Amino)Pyrazin-1(2H)-yl)Acetamide]
9 | < 500 | COc1ccccc1-c1cnc(NCCc2ccccc2)c(=O)n1CC(=O)NCc1ccc(N)nc1C [Compound 28, N-((6-Amino-2-methylpyridin-3-yl)methyl)-2-(6-(2-methoxyphenyl)-2-oxo-3-(phenethylamino)pyrazin-1(2H)-yl)acetamide hydrochloride]
10 | < 500 | Cc1nc(N)ccc1CNC(=O)Cn1c(-c2ccccc2Cl)cnc(NCCc2ccccc2)c1=O [Compound 29]
11 | < 500 | Cc1nc(N)ccc1CNC(=O)Cn1c(-c2cccc(C(N)=O)c2)cnc(NCCc2ccccc2)c1=O [Compound 30, 3-(1-(2-(((6-Amino-2-methylpyridin-3-yl)methyl)amino)-2-oxoethyl)-6-oxo-5-(phenethylamino)-1,6-dihydropyrazin-2-yl)benzamide hydrochloride]
12 | < 500 | Cc1nc(N)ccc1CNC(=O)Cn1c(-c2ccc(N)cc2)cnc(NCCc2ccccc2)c1=O [Compound 31, N-((6-Amino-2-Methylpyridin-3-yl)Methyl)-2-(6-(4-Aminophenyl)-2-Oxo-3-(Phenyethylamino)Pyrazin-1-(2H)-yl)Acetamide]
13 | < 500 | Cc1nc(N)ccc1CNC(=O)Cn1c(-c2cccc(CO)c2)cnc(NCCc2ccccc2)c1=O [Compound 32, N-((6-Amino-2-Methylpyridin-3-yl)Methyl)-2-(6-(3-(Hydroxymethyl)Phenyl)-2-Oxo-3-(Phenethyl Amino)Pyrazin-1(2H)-yl)Acetamide]
14 | < 500 | Cc1nc(N)ccc1CNC(=O)Cn1c(-c2ccc(CO)cc2)cnc(NCCc2ccccc2)c1=O [Compound 33]
15 | < 500 | Cc1nc(N)ccc1CNC(=O)Cn1c(=O)c(NCCc2ccccc2)cn(C)c1=O [Compound 34, N-((6-Amino-2-Methylpyridin-3-yl)Methyl)-2-(3-Methyl-2,6-Dioxo-5-(Phenethylamino)-3,6-Dihydropyrimidin-1(2H)-yl)Acetamide]
16 | 2500 to 10000 | Cc1cc(Cl)cc(CNC(=O)Cn2c(=O)c(NCCc3ccccc3)cn(C)c2=O)c1O [Compound 35, trifluoroacetate]

Row | Ki [nM] | SMILES
17 | > 10000 | Cc1nc(N)ccc1CNC(=O)Cn1c(=O)c(NS(=O)(=O)Cc2ccccc2)cn(C)c1=O [Compound 36, N-((6-Amino-2-Methylpyridin-3-yl)Methyl)-2-(3-Methyl-2,6-Dioxo-5-((Phenylmethyl)Sulfonamido)-3,6-Dihydropyrimidin-1(2H)-yl)Acetamide, Trifluoroacetate]
18 | 500 to 2500 | Cn1cc(NS(=O)(=O)Cc2ccccc2)c(=O)n(CC(=O)NCc2ccc(C(=N)N)cc2)c1=O [Compound 37, N-(4-Carbamimidoylbenzyl)-2-(3-Methyl-2,6-Dioxo-5-((Phenylmethyl)Sulfonamido)-3,6-Dihydropyrimidin-1(2H)-yl)Acetamide, Trifluoroacetate]
19 | 500 to 2500 | CNc1nc(Cl)c(-c2ccccc2)n(CC(=O)NCc2ccc(N)nc2C)c1=O [Compound 38]
20 | 2500 to 10000 | Cc1nc(N)ccc1CNC(=O)Cn1c(-c2ccccc2)c(Cl)nc(N(C)C)c1=O [Compound 39, N-((6-Amino-2-methylpyridin-3-yl)methyl)-2-(5-chloro-3-(dimethylamino)-2-oxo-6-phenylpyrazin-1(2H)-yl)acetamide]
21 | < 500 | Cc1nc(N)ccc1CNC(=O)Cn1c(-c2ccccc2)c(Cl)nc(N2CCCC2)c1=O [Compound 40, N-((6-Amino-2-methylpyridin-3-yl)methyl)-2-(5-chloro-2-oxo-6-phenyl-3-(pyrrolidin-1-yl)pyrazin-1(2H)-yl)acetamide]
22 | 500 to 2500 | Cc1nc(N)ccc1CNC(=O)Cn1c(-c2ccccc2)c(Cl)nc(NCCc2ccccc2)c1=O [Compound 41, N-((6-Amino-2-Methylpyridin-3-yl)Methyl)-2-(5-Chloro-2-Oxo-3-(Phenethylamino)-6-Phenylpyrazin-1(2H)-yl)Acetamide]
23 | 500 to 2500 | Cc1nc(N)ccc1CNC(=O)Cn1c(-c2ccccc2)c(Cl)nc(NC2COC2c2ccccc2)c1=O (stereo not shown) [Compound 42]
24 | < 500 | Cc1nc(N)ccc1CNC(=O)Cn1c(-c2ccccc2)cnc(N2CCCC2)c1=O [Compound 43, N-((6-Amino-2-Methylpyridin-3-yl)Methyl)-2-(2-Oxo-6-Phenyl-3-(Pyrrolidin-1-yl)Pyrazin-1(2H)-yl)Acetamide]
25 | < 500 | Cc1nc(N)ccc1CNC(=O)Cn1c(-c2ccccc2)cnc(N2CCOCC2)c1=O [Compound 44, N-((6-Amino-2-methylpyridin-3-yl)methyl)-2-(3-morpholino-2-oxo-6-phenylpyrazin-1(2H)-yl)acetamide]
26 | < 500 | CNc1ncc(-c2ccccc2)n(CC(=O)NCc2ccc(N)nc2C)c1=O [Compound 45, N-((6-Amino-2-methylpyridin-3-yl)methyl)-2-(3-(methylamino)-2-oxo-6-phenylpyrazin-1(2H)-yl)acetamide]
27 | < 500 | Cn1c(CNC(=O)Cn2c(-c3ccccc3)cnc(NCCc3ccccc3)c2=O)cc2cnccc21 [Compound 46, N-((1-Methyl-1H-Pyrrolo[3,2-c]Pyridin-2-yl)Methyl)-2-(2-Oxo-3-(Phenethylamino)-6-Phenylpyrazin-1(2H)-yl)Acetamide Trifluoroacetate]
28 | < 500 | O=C(Cn1c(-c2ccccc2)cnc(NCC2(c3ccccc3)COC2)c1=O)NCc1cc2cnccc2[nH]1 [Compound 47, N-((1H-pyrrolo[3,2-c]pyridin-2-yl)methyl)-2-(2-oxo-6-phenyl-3-(((3-phenyloxetan-3-yl)methyl)amino)pyrazin-1(2H)-yl)acetamide trifluoroacetate]
29 | < 500 | O=C(Cn1c(-c2ccccc2)cnc(NCCCc2ccccc2)c1=O)NCc1cc2cnccc2[nH]1 [Compound 48, N-((1H-Pyrrolo[3,2-c]pyridin-2-yl)methyl)-2-(2-oxo-6-phenyl-3-((3-phenylpropyl)amino)pyrazin-1(2H)-yl)acetamide trifluoroacetate]
30 | < 500 | O=C(Cn1c(-c2ccccc2)cnc(NC(CO)Cc2ccccc2)c1=O)NCc1cc2cnccc2[nH]1 (stereo not shown) [Compound 49, N-((1H-Pyrrolo[3,2-c]pyridin-2-yl)methyl)-2-(3-((1-hydroxy-3-phenylpropan-2-yl)amino)-2-oxo-6-phenylpyrazin-1(2H)-yl)acetamide trifluoroacetate]
31 | < 500 | O=C(Cn1c(-c2ccccc2)cnc(NCC2(c3ccccc3)CCOC2)c1=O)NCc1cc2cnccc2[nH]1 (stereo not shown) [Compound 50, N-((1H-Pyrrolo[3,2-c]pyridin-2-yl)methyl)-2-(2-oxo-6-phenyl-3-(((3-phenyltetrahydrofuran-3-yl)methyl)amino)pyrazin-1(2H)-yl)acetamide trifluoroacetate]

From patent US12110288B2, “MASP-2 inhibitors and methods of use” (Omeros Corporation, priority 2019, dated 2024)
